According to ChEMBL document CHEMBL3885861, “Open TG-GATES”:

Species on record: Rattus norvegicus
Assay: Open TG-GATES - Regimen: Single
Assay type: toxicity, organism-based, Sprague-Dawley
Design: regimen Single, gender Male, age 6 weeks
Details: in vivo, po, route gavage; for gamma-GTP / ALP / ALT / AST / BUN / CRE / Ca / Cl / DBIL / GLC / IP / K / LDH / Na / PL / RALB / TBIL / TG / TP: tissue Plasma; for APTT / Bas / Eos / Fbg / Hb / Ht / Lym / MCH / MCV / Mono / Neu / PT / Plat / RBC / Ret / WBC: tissue Blood; for KIDNEY_L / KIDNEY_R / KIDNEY_TOTAL: tissue Kidney; for LIVER: tissue Liver
[1] = 100 mg/kg, 3 h, dose level Middle
[2] = 100 mg/kg, 6 h, dose level Middle
[3] = 100 mg/kg, 9 h, dose level Middle
[4] = 100 mg/kg, 24 h, dose level Middle
[5] = 300 mg/kg, 3 h, dose level High
[6] = 300 mg/kg, 6 h, dose level High
[7] = 300 mg/kg, 9 h, dose level High
[8] = 300 mg/kg, 24 h, dose level High

NC(=O)N1c2ccccc2C=Cc2ccccc21 [CARBAMAZEPINE]
gamma-GTP (30 mg/kg, 24 h, dose level Low): 0.8 IU/L
TERMINAL_BW [1]: 216.3 g
APTT [1]: 19.3 s
Bas [1]: 0%
Eos [1]: 1.2%
Fbg [1]: 209.4 mg/dL
Hb [1]: 13.2 g/dL
Ht [1]: 38.8%
Lym [1]: 77.4%
MCH [1]: 21.3 pg
MCV [1]: 62.7 fL
Mono [1]: 2.8%
Neu [1]: 17.2%
PT [1]: 12.4 s
Plat [1]: 121.8 x10_4/uL
RBC [1]: 619 x10_4/ul
Ret [1]: 7.2%
WBC [1]: 96 x10_2/uL
KIDNEY_L [1]: 0.9 g
KIDNEY_R [1]: 0.9 g
KIDNEY_TOTAL [1]: 1.9 g
LIVER [1]: 9.8 g
ALP [1]: 792.4 IU/L
ALT [1]: 35.8 IU/L
AST [1]: 63.8 IU/L
BUN [1]: 9.2 mg/dL
CRE [1]: 0.4 mg/dL
Ca [1]: 10.4 mg/dL
Cl [1]: 102 meq/L
DBIL [1]: 0.076 mg/dL
GLC [1]: 190 mg/dL
IP [1]: 9.9 mg/dL
K [1]: 3.8 meq/L
LDH [1]: 202 IU/L
Na [1]: 140.6 meq/L
PL [1]: 152.4 mg/dL
RALB [1]: 3.3 g/dL
TBIL [1]: 0.1 mg/dL
TG [1]: 62 mg/dL
TP [1]: 5.5 g/dL
gamma-GTP [1]: 1 IU/L
TERMINAL_BW [2]: 210.4 g
APTT [2]: 20.3 s
Bas [2]: 0%
Eos [2]: 1%
Fbg [2]: 210 mg/dL
Hb [2]: 13.2 g/dL
Ht [2]: 38.7%
Lym [2]: 80.4%
MCH [2]: 20.8 pg
MCV [2]: 61.1 fL
Mono [2]: 2.6%
Neu [2]: 14.8%
PT [2]: 12.8 s
Plat [2]: 121.9 x10_4/uL
RBC [2]: 633.2 x10_4/ul
Ret [2]: 6.5%
WBC [2]: 95.7 x10_2/uL
KIDNEY_L [2]: 0.9 g
KIDNEY_R [2]: 0.9 g
KIDNEY_TOTAL [2]: 1.8 g
LIVER [2]: 9.1 g
ALP [2]: 803.4 IU/L
ALT [2]: 30.8 IU/L
AST [2]: 60.4 IU/L
BUN [2]: 9.4 mg/dL
CRE [2]: 0.4 mg/dL
Ca [2]: 10.6 mg/dL
Cl [2]: 102.4 meq/L
DBIL [2]: 0.084 mg/dL
GLC [2]: 190.6 mg/dL
IP [2]: 9.4 mg/dL
K [2]: 3.8 meq/L
LDH [2]: 175.2 IU/L
Na [2]: 140.8 meq/L
PL [2]: 142 mg/dL
RALB [2]: 3.4 g/dL
TBIL [2]: 0.1 mg/dL
TG [2]: 58.4 mg/dL
TP [2]: 5.6 g/dL
gamma-GTP [2]: 0.6 IU/L
TERMINAL_BW [3]: 211 g
APTT [3]: 18.6 s
Bas [3]: 0%
Eos [3]: 1%
Fbg [3]: 204.6 mg/dL
Hb [3]: 13.3 g/dL
Ht [3]: 38.7%
Lym [3]: 81.4%
MCH [3]: 21.3 pg
MCV [3]: 61.9 fL
Mono [3]: 2.4%
Neu [3]: 14.8%
PT [3]: 13.2 s
Plat [3]: 120.7 x10_4/uL
RBC [3]: 625.2 x10_4/ul
Ret [3]: 6.4%
WBC [3]: 91.7 x10_2/uL
KIDNEY_L [3]: 1 g
KIDNEY_R [3]: 1 g
KIDNEY_TOTAL [3]: 2 g
LIVER [3]: 8.6 g
ALP [3]: 828.4 IU/L
ALT [3]: 25.2 IU/L
AST [3]: 57.6 IU/L
BUN [3]: 9.6 mg/dL
CRE [3]: 0.3 mg/dL
Ca [3]: 10.3 mg/dL
Cl [3]: 101.6 meq/L
DBIL [3]: 0.064 mg/dL
GLC [3]: 197 mg/dL
IP [3]: 10.1 mg/dL
K [3]: 3.7 meq/L
LDH [3]: 176.2 IU/L
Na [3]: 140.2 meq/L
PL [3]: 133.2 mg/dL
RALB [3]: 3.4 g/dL
TBIL [3]: 0.1 mg/dL
TG [3]: 45.6 mg/dL
TP [3]: 5.4 g/dL
gamma-GTP [3]: 0.8 IU/L
TERMINAL_BW [4]: 226.1 g
APTT [4]: 20.2 s
Bas [4]: 0%
Eos [4]: 0.8%
Fbg [4]: 211.6 mg/dL
Hb [4]: 13.3 g/dL
Ht [4]: 39.4%
Lym [4]: 80%
MCH [4]: 21.1 pg
MCV [4]: 62.7 fL
Mono [4]: 2.8%
Neu [4]: 15.6%
PT [4]: 12.2 s
Plat [4]: 123.8 x10_4/uL
RBC [4]: 629 x10_4/ul
Ret [4]: 5.9%
WBC [4]: 88.7 x10_2/uL
KIDNEY_L [4]: 1 g
KIDNEY_R [4]: 1.1 g
KIDNEY_TOTAL [4]: 2.1 g
LIVER [4]: 11.4 g
ALP [4]: 820.6 IU/L
ALT [4]: 33.8 IU/L
AST [4]: 66.4 IU/L
BUN [4]: 18.4 mg/dL
CRE [4]: 0.4 mg/dL
Ca [4]: 10.6 mg/dL
Cl [4]: 103.2 meq/L
DBIL [4]: 0.1 mg/dL
GLC [4]: 199 mg/dL
IP [4]: 7.4 mg/dL
K [4]: 4.3 meq/L
LDH [4]: 215 IU/L
Na [4]: 140.2 meq/L
PL [4]: 147 mg/dL
RALB [4]: 3.3 g/dL
TBIL [4]: 0.2 mg/dL
TP [4]: 5.5 g/dL
gamma-GTP [4]: 1 IU/L
TERMINAL_BW [5]: 216.2 g
APTT [5]: 20.3 s
Bas [5]: 0%
Eos [5]: 1%
Fbg [5]: 202 mg/dL
Hb [5]: 13 g/dL
Ht [5]: 38.4%
Lym [5]: 80%
MCH [5]: 21.6 pg
MCV [5]: 63.7 fL
Mono [5]: 2.2%
Neu [5]: 15.8%
PT [5]: 12.5 s
Plat [5]: 116.4 x10_4/uL
RBC [5]: 602.6 x10_4/ul
Ret [5]: 7%
WBC [5]: 87.3 x10_2/uL
KIDNEY_L [5]: 1 g
KIDNEY_R [5]: 1 g
KIDNEY_TOTAL [5]: 2 g
LIVER [5]: 9.7 g
ALP [5]: 789.4 IU/L
ALT [5]: 34.4 IU/L
AST [5]: 65 IU/L
BUN [5]: 10.2 mg/dL
CRE [5]: 0.4 mg/dL
Ca [5]: 10.3 mg/dL
Cl [5]: 101.8 meq/L
DBIL [5]: 0.082 mg/dL
GLC [5]: 194.8 mg/dL
IP [5]: 10 mg/dL
K [5]: 3.8 meq/L
LDH [5]: 199.6 IU/L
Na [5]: 140.2 meq/L
PL [5]: 150.8 mg/dL
RALB [5]: 3.4 g/dL
TBIL [5]: 0.1 mg/dL
TG [5]: 63 mg/dL
TP [5]: 5.4 g/dL
gamma-GTP [5]: 1 IU/L
TERMINAL_BW [6]: 212.3 g
APTT [6]: 20 s
Bas [6]: 0%
Eos [6]: 1%
Fbg [6]: 205.6 mg/dL
Hb [6]: 13.2 g/dL
Ht [6]: 38.6%
Lym [6]: 80.6%
MCH [6]: 21.2 pg
MCV [6]: 61.9 fL
Mono [6]: 3%
Neu [6]: 14%
PT [6]: 12.8 s
Plat [6]: 123.1 x10_4/uL
RBC [6]: 623 x10_4/ul
Ret [6]: 6.2%
WBC [6]: 86.4 x10_2/uL
KIDNEY_L [6]: 1 g
KIDNEY_R [6]: 1 g
KIDNEY_TOTAL [6]: 2 g
LIVER [6]: 9.2 g
ALP [6]: 891 IU/L
ALT [6]: 35.4 IU/L
AST [6]: 68 IU/L
BUN [6]: 8.6 mg/dL
CRE [6]: 0.4 mg/dL
Ca [6]: 10.4 mg/dL
Cl [6]: 102.8 meq/L
DBIL [6]: 0.074 mg/dL
GLC [6]: 188.2 mg/dL
IP [6]: 9.9 mg/dL
K [6]: 3.7 meq/L
LDH [6]: 203.4 IU/L
Na [6]: 140.8 meq/L
PL [6]: 146 mg/dL
RALB [6]: 3.4 g/dL
TBIL [6]: 0.1 mg/dL
TG [6]: 41.8 mg/dL
TP [6]: 5.6 g/dL
gamma-GTP [6]: 0.6 IU/L
TERMINAL_BW [7]: 212.2 g
APTT [7]: 20 s
Bas [7]: 0%
Eos [7]: 1%
Fbg [7]: 221.6 mg/dL
Hb [7]: 13.2 g/dL
Ht [7]: 38.3%
Lym [7]: 80.6%
MCH [7]: 20.7 pg
MCV [7]: 60.2 fL
Mono [7]: 2.2%
Neu [7]: 15.2%
PT [7]: 13.3 s
Plat [7]: 123.1 x10_4/uL
RBC [7]: 637 x10_4/ul
Ret [7]: 5.7%
WBC [7]: 77.3 x10_2/uL
KIDNEY_L [7]: 1 g
KIDNEY_R [7]: 1 g
KIDNEY_TOTAL [7]: 1.9 g
LIVER [7]: 8.5 g
ALP [7]: 816 IU/L
ALT [7]: 26.6 IU/L
AST [7]: 60.4 IU/L
BUN [7]: 9.4 mg/dL
CRE [7]: 0.3 mg/dL
Ca [7]: 10.3 mg/dL
Cl [7]: 101 meq/L
DBIL [7]: 0.068 mg/dL
GLC [7]: 195.8 mg/dL
IP [7]: 9.9 mg/dL
K [7]: 3.6 meq/L
LDH [7]: 200.6 IU/L
Na [7]: 140.6 meq/L
PL [7]: 139 mg/dL
RALB [7]: 3.4 g/dL
TBIL [7]: 0.1 mg/dL
TG [7]: 47.2 mg/dL
TP [7]: 5.6 g/dL
gamma-GTP [7]: 0.6 IU/L
TERMINAL_BW [8]: 214.8 g
APTT [8]: 20.8 s
Bas [8]: 0%
Eos [8]: 0.8%
Fbg [8]: 200.6 mg/dL
Hb [8]: 13.7 g/dL
Ht [8]: 40.4%
Lym [8]: 86%
MCH [8]: 21.7 pg
MCV [8]: 63.9 fL
Mono [8]: 2%
Neu [8]: 10.6%
PT [8]: 13 s
Plat [8]: 127.9 x10_4/uL
RBC [8]: 632.8 x10_4/ul
Ret [8]: 6%
WBC [8]: 91 x10_2/uL
KIDNEY_L [8]: 1 g
KIDNEY_R [8]: 1 g
KIDNEY_TOTAL [8]: 2 g
LIVER [8]: 9.7 g
ALP [8]: 927.8 IU/L
ALT [8]: 34.6 IU/L
AST [8]: 65 IU/L
BUN [8]: 14.8 mg/dL
CRE [8]: 0.4 mg/dL
Ca [8]: 10.4 mg/dL
Cl [8]: 103.2 meq/L
DBIL [8]: 0.1 mg/dL
GLC [8]: 203.2 mg/dL
IP [8]: 7.9 mg/dL
K [8]: 3.6 meq/L
LDH [8]: 212.2 IU/L
Na [8]: 141 meq/L
PL [8]: 121.4 mg/dL
RALB [8]: 3.4 g/dL
TBIL [8]: 0.2 mg/dL
TG [8]: 88 mg/dL
TP [8]: 5.6 g/dL
gamma-GTP [8]: 0.8 IU/L
